Assay results taken from patent US12662479B2 (Foghorn Therapeutics Inc., priority 2020, dated 2026).

Columns and labels:
HiBit-BRM fusion protein = biological target: T1, HiBit-BRM fusion protein (Homo sapiens, UniProt P51531); assay: HiBiT-BRM cell-based degradation assay (Nano-Glo HiBiT Lytic Detection, 24 h); details: HeLa cells expressing HiBiT-BRM; for DC50: read-out: BRM HiBit Degradation IC50; for BRM HiBit Degradation Maximum measured: top dose 30 μM
T1 construct: expressed in transfected cells
Method in brief: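 Percent BRM loss was derived from HiBiT luminescence relative to DMSO-treated cells and cells given 2 μM of a known BRM/BRG1 degrader. Treatment lasted 24 h in HiBiT-BRM HeLa cells, with a top final concentration of 30 μM.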

[1] = biological target: T2, HiBit-BRG1 fusion protein (Homo sapiens, UniProt P51532); assay: HiBiT-BRG1 cell-based degradation assay (Nano-Glo HiBiT Lytic Detection, 24 h); details: HeLa cells expressing HiBit-BRG1 and LgBit; for DC50: read-out: BRG1 HiBit Degradation IC50; for Dmax: HeLa, top dose 30 μM, read-out: BRG1 HiBit Degradation Maximum measured
T2 construct: expressed in transfected cells
Method in brief: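 Degradation is scaled from DMSO-treated cells (0%) to cells given 2 μM of a known BRM/BRG1 degrader (100%). HeLa cells stably carrying HiBiT-BRG1 plus LgBiT (5000/well) were lysed with Nano-Glo HiBiT detection reagent, shaken 10 min at RT, and luminescence read.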

T2 sequence (P51532 whole entry, the tested form may be a part): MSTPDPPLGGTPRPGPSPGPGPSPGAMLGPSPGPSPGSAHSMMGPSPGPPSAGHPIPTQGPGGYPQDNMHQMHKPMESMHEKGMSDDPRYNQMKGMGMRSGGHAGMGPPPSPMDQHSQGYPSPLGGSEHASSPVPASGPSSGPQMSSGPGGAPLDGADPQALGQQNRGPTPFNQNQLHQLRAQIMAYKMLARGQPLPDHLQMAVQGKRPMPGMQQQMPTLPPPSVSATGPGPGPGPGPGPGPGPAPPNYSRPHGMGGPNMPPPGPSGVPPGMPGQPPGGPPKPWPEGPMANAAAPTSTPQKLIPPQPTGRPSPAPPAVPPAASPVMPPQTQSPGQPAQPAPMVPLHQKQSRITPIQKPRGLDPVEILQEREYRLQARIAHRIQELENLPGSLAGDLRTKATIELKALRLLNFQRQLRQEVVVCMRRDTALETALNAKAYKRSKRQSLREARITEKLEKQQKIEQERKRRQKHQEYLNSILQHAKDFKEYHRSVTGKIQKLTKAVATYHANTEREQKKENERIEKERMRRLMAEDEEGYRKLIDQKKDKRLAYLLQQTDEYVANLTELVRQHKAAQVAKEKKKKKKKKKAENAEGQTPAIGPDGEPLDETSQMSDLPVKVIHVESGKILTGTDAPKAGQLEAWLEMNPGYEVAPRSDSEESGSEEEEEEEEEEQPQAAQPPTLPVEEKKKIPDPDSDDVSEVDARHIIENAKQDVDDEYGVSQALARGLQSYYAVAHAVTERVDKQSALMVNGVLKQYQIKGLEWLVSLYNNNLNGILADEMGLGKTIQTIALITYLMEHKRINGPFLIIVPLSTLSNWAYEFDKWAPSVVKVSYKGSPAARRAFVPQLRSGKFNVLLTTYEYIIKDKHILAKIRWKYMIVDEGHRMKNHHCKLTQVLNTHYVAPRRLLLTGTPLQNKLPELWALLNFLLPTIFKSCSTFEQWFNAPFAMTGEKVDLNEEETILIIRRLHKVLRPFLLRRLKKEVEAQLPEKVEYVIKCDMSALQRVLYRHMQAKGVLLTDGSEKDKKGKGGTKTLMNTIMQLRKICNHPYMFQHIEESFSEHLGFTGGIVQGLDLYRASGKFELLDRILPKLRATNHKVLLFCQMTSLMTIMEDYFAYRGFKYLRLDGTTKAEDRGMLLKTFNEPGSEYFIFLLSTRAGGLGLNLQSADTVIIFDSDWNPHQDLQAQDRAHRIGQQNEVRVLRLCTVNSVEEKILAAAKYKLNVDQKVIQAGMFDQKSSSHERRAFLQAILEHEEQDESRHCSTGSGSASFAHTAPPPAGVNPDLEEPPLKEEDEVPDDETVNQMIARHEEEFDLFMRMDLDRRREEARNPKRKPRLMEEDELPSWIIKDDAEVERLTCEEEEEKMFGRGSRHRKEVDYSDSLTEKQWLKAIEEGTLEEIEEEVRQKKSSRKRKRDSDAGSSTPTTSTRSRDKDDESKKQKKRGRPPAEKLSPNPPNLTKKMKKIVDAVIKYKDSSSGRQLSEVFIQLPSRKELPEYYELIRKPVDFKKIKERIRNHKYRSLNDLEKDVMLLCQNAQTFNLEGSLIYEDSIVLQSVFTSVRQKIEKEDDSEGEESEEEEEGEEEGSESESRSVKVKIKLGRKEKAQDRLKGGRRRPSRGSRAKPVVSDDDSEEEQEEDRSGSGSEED
T1 sequence (P51531 whole entry, the tested form may be a part): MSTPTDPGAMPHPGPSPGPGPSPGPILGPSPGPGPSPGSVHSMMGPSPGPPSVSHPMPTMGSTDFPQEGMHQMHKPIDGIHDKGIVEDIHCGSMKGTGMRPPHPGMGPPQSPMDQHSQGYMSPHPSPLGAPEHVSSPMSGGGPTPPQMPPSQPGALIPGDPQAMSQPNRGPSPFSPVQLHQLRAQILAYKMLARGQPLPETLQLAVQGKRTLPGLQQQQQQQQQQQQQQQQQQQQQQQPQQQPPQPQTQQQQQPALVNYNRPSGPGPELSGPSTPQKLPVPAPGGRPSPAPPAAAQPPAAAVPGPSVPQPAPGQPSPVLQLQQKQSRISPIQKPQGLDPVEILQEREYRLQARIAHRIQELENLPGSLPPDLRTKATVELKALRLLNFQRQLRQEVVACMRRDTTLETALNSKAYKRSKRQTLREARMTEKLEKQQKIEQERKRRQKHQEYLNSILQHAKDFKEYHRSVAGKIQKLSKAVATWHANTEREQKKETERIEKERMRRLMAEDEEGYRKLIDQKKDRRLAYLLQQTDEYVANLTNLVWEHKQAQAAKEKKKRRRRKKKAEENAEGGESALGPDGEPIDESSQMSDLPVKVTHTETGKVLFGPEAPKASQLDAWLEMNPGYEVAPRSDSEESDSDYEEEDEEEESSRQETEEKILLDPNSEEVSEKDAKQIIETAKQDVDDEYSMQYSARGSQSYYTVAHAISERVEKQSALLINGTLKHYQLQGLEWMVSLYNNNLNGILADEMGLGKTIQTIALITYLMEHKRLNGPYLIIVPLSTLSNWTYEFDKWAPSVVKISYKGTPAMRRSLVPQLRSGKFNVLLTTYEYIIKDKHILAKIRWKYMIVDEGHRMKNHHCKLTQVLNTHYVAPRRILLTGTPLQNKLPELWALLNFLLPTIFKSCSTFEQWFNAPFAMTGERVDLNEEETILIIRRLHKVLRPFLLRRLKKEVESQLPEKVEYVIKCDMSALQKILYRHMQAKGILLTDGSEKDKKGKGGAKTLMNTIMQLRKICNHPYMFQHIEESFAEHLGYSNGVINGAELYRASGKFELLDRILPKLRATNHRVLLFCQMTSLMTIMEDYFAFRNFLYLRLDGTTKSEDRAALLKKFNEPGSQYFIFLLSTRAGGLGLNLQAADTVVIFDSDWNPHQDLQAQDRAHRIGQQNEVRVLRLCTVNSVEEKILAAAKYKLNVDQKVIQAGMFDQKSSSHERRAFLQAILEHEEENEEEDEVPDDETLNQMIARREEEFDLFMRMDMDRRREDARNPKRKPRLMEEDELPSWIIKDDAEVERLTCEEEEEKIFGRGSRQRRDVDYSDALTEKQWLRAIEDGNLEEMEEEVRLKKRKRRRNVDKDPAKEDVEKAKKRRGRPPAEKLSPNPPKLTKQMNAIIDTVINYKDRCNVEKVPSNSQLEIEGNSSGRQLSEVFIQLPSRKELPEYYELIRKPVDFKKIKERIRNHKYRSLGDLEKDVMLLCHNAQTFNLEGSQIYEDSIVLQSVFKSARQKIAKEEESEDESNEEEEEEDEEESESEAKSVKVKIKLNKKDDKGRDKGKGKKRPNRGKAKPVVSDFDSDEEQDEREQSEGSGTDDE

| Compound | DC50 (HiBit-BRM fusion protein) | BRM HiBit Degradation Maximum measured (HiBit-BRM fusion protein) | DC50 [1] | Dmax [1] |
| --- | --- | --- | --- | --- |
| CS(=O)(=O)n1ccc(C(=O)N[C@@H](COCc2ccc(C(=O)NCCOc3cccc(OCCNc4cccc5c4C(=O)N(C4CCC(=O)NC4=O)C5=O)c3)cc2)C(=O)Nc2nc(-c3ccccc3)cs2)c1 (stereo partly drawn) [Compound 206, N-[2-[3-(2-[[2-(2,6-dioxopiperidin-3-yl)-1,3-dioxoisoindol-4-yl]amino]ethoxy)phenoxy]ethyl]-4-[[(2S)-2-[(1-methanesulfonylpyrrol-3-yl)formamido]-2-[(4-phenyl-1,3-thiazol-2-yl)carbamoyl]ethoxy]methyl]benzamide] | > 10000 nM | C (‘C’ = Maximum degradation <50%) | > 10000 nM | < 50% |
| CS(=O)(=O)n1ccc(C(=O)N[C@@H](COCc2ccc(C(=O)NCCOc3cccc(OCCNc4ccc5c(c4)C(=O)N(C4CCC(=O)NC4=O)C5=O)c3)cc2)C(=O)Nc2nc(-c3ccccc3)cs2)c1 (stereo partly drawn) [Compound 207, N-[2-[3-(2-[[2-(2,6-dioxopiperidin-3-yl)-1,3-dioxoisoindol-5-yl]amino]ethoxy)phenoxy]ethyl]-4-[[(2S)-2-[(1-methanesulfonylpyrrol-3-yl)formamido]-2-[(4-phenyl-1,3-thiazol-2-yl)carbamoyl]ethoxy]methyl]benzamide] | 100 to 1000 nM | B (‘B’ = Maximum degradation ≥50% and ≤75%) | 100 to 1000 nM | 50 to 75% |
| Cc1ncsc1-c1ccc(CNC(=O)[C@@H]2C[C@@H](O)CN2C(=O)[C@@H](NC(=O)CCCCC(=O)NCc2ccc(COC[C@H](NC(=O)c3ccn(S(C)(=O)=O)c3)C(=O)Nc3nc(-c4ccccc4)cs3)cc2)C(C)(C)C)cc1 [Compound 208, N-[(2S)-1-[(2S,4R)-4-hydroxy-2-([[4-(4-methyl-1,3-thiazol-5-yl)phenyl]methyl]carbamoyl)pyrrolidin-1-yl]-3,3-dimethyl-1-oxobutan-2-yl]-N′-[(4-[[(2S)-2-[(1-methanesulfonylpyrrol-3-yl)formamido]-2-[(4-phenyl-1,3-thiazol-2-yl)carbamoyl]ethoxy]methyl]phenyl)methyl]hexanediamide] | > 10000 nM | C (‘C’ = Maximum degradation <50%) | > 10000 nM | < 50% |
| Cc1ncsc1-c1ccc(CNC(=O)[C@@H]2C[C@@H](O)CN2C(=O)[C@@H](NC(=O)CCCCCCCCCCC(=O)NCc2ccc(COC[C@H](NC(=O)c3ccn(S(C)(=O)=O)c3)C(=O)Nc3nc(-c4ccccc4)cs3)cc2)C(C)(C)C)cc1 [Compound 209, N-[(2S)-1-[(2S,4R)-4-hydroxy-2-([[4-(4-methyl-1,3-thiazol-5-yl)phenyl]methyl]carbamoyl)pyrrolidin-1-yl]-3,3-dimethyl-1-oxobutan-2-yl]-N′-[(4-[[(2S)-2-[(1-methanesulfonylpyrrol-3-yl)formamido]-2-[(4-phenyl-1,3-thiazol-2-yl)carbamoyl]ethoxy]methyl]phenyl)methyl]dodecanediamide] | > 10000 nM | C (‘C’ = Maximum degradation <50%) | > 10000 nM | < 50% |
| Cc1ncsc1-c1ccc(CNC(=O)[C@@H]2C[C@@H](O)CN2C(=O)[C@@H](NC(=O)CCCCCCC(=O)NCc2ccc(COC[C@H](NC(=O)c3ccn(S(C)(=O)=O)c3)C(=O)Nc3nc(-c4ccccc4)cs3)cc2)C(C)(C)C)cc1 [Compound 210, N-[(2S)-1-[(2S,4R)-4-hydroxy-2-([[4-(4-methyl-1,3-thiazol-5-yl)phenyl]methyl]carbamoyl)pyrrolidin-1-yl]-3,3-dimethyl-1-oxobutan-2-yl]-N′-[(4-[[(2S)-2-[(1-methanesulfonylpyrrol-3-yl)formamido]-2-[(4-phenyl-1,3-thiazol-2-yl)carbamoyl]ethoxy]methyl]phenyl)methyl]octanediamide] | > 10000 nM | C (‘C’ = Maximum degradation <50%) | > 10000 nM | < 50% |
| Cc1ncsc1-c1ccc(CNC(=O)[C@@H]2C[C@@H](O)CN2C(=O)[C@@H](NC(=O)CCCCCCCCCCCCC(=O)NCc2ccc(COC[C@H](NC(=O)c3ccn(S(C)(=O)=O)c3)C(=O)Nc3nc(-c4ccccc4)cs3)cc2)C(C)(C)C)cc1 [Compound 211, N-[(2S)-1-[(2S,4R)-4-hydroxy-2-([[4-(4-methyl-1,3-thiazol-5-yl)phenyl]methyl]carbamoyl)pyrrolidin-1-yl]-3,3-dimethyl-1-oxobutan-2-yl]-N′-[(4-[[(2S)-2-[(1-methanesulfonylpyrrol-3-yl)formamido]-2-[(4-phenyl-1,3-thiazol-2-yl)carbamoyl]ethoxy]methyl]phenyl)methyl]tetradecanediamide] | > 10000 nM | C (‘C’ = Maximum degradation <50%) | > 10000 nM | < 50% |
| CS(=O)(=O)n1ccc(C(=O)N[C@@H](COCc2ccc(CNC(=O)CCCCOc3cccc4c3C(=O)N(C3CCC(=O)NC3=O)C4=O)cc2)C(=O)Nc2nc(-c3ccccc3)cs2)c1 (stereo partly drawn) [Compound 212, 5-[[2-(2,6-dioxopiperidin-3-yl)-1,3-dioxoisoindol-4-yl]oxy]-N-[(4-[[(2S)-2-[(1-methanesulfonylpyrrol-3-yl)formamido]-2-[(4-phenyl-1,3-thiazol-2-yl)carbamoyl]ethoxy]methyl]phenyl)methyl]pentanamide] | > 10000 nM | C (‘C’ = Maximum degradation <50%) | > 10000 nM | < 50% |
| CS(=O)(=O)n1ccc(C(=O)N[C@@H](COCc2ccc(CNC(=O)CCCCCCCOc3cccc4c3C(=O)N(C3CCC(=O)NC3=O)C4=O)cc2)C(=O)Nc2nc(-c3ccccc3)cs2)c1 (stereo partly drawn) [Compound 213, 8-[[2-(2,6-dioxopiperidin-3-yl)-1,3-dioxoisoindol-4-yl]oxy]-N-[(4-[[(2S)-2-[(1-methanesulfonylpyrrol-3-yl)formamido]-2-[(4-phenyl-1,3-thiazol-2-yl)carbamoyl]ethoxy]methyl]phenyl)methyl]octanamide] | 100 to 1000 nM | B (‘B’ = Maximum degradation ≥50% and ≤75%) | 100 to 1000 nM | 50 to 75% |
| CS(=O)(=O)n1ccc(C(=O)N[C@@H](COCc2ccc(CNC(=O)CCCCCCCCCCNc3cccc4c3C(=O)N(C3CCC(=O)NC3=O)C4=O)cc2)C(=O)Nc2nc(-c3ccccc3)cs2)c1 (stereo partly drawn) [Compound 214, 11-[[2-(2,6-dioxopiperidin-3-yl)-1,3-dioxoisoindol-4-yl]amino]-N-[(4-[[(2S)-2-[(1-methanesulfonylpyrrol-3-yl)formamido]-2-[(4-phenyl-1,3-thiazol-2-yl)carbamoyl]ethoxy]methyl]phenyl)methyl]undecanamide] | 100 to 1000 nM | B (‘B’ = Maximum degradation ≥50% and ≤75%) | 100 to 1000 nM | – |
| CS(=O)(=O)n1ccc(C(=O)N[C@@H](COCc2ccc(CNC(=O)CCN3CCN(c4ccc5c(c4)C(=O)N(C4CCC(=O)NC4=O)C5=O)CC3)cc2)C(=O)Nc2nc(-c3ccccc3)cs2)c1 (stereo partly drawn) [Compound 215, (2S)-3-([4-[(3-[4-[2-(2,6-dioxopiperidin-3-yl)-1,3-dioxoisoindol-5-yl]piperazin-1-yl]propanamido)methyl]phenyl]methoxy)-2-[(1-methanesulfonylpyrrol-3-yl)formamido]-N-(4-phenyl-1,3-thiazol-2-yl)propanamide; formic acid] | 100 to 1000 nM | B (‘B’ = Maximum degradation ≥50% and ≤75%) | 100 to 1000 nM | > 75% |
| CS(=O)(=O)n1ccc(C(=O)N[C@@H](COCc2ccc(CNC(=O)CCOCCOCCOc3ccc4c(c3)C(=O)N(C3CCC(=O)NC3=O)C4=O)cc2)C(=O)Nc2nc(-c3ccccc3)cs2)c1 (stereo partly drawn) [Compound 217, 3-[2-(2-[[2-(2,6-dioxopiperidin-3-yl)-1,3-dioxoisoindol-5-yl]oxy]ethoxy)ethoxy]-N-[(4-[[(2S)-2-[(1-methanesulfonylpyrrol-3-yl)formamido]-2-[(4-phenyl-1,3-thiazol-2-yl)carbamoyl]ethoxy]methyl]phenyl)methyl]propanamide] | 100 to 1000 nM | B (‘B’ = Maximum degradation ≥50% and ≤75%) | 100 to 1000 nM | 50 to 75% |

Other lines, results leading:

| DC50 (HiBit-BRM fusion protein) | BRM HiBit Degradation Maximum measured (HiBit-BRM fusion protein) | DC50 [1] | Dmax [1] | Compound |
| --- | --- | --- | --- | --- |
| > 10000 nM | C (‘C’ = Maximum degradation <50%) | > 10000 nM | < 50% | CS(=O)(=O)n1ccc(C(=O)N[C@@H](COCc2ccc(C(=O)NCCCC#Cc3cccc4c3C(=O)N(C3CCC(=O)NC3=O)C4=O)cc2)C(=O)Nc2nc(-c3ccccc3)cs2)c1 (stereo partly drawn) [Compound 205, N-[5-[2-(2,6-dioxopiperidin-3-yl)-1,3-dioxoisoindol-4-yl]pent-4-yn-1-yl]-4-[[(2S)-2-[(1-methanesulfonylpyrrol-3-yl)formamido]-2-[(4-phenyl-1,3-thiazol-2-yl)carbamoyl]ethoxy]methyl]benzamide] |
| 100 to 1000 nM | A (‘A’ = Maximum degradation >75%) | 100 to 1000 nM | > 75% | CS(=O)(=O)n1ccc(C(=O)N[C@@H](COCc2ccc(CNC(=O)C3CCN(CCOc4ccc5c(c4)C(=O)N(C4CCC(=O)NC4=O)C5=O)CC3)cc2)C(=O)Nc2nc(-c3ccccc3)cs2)c1 (stereo partly drawn) [Compound 216, 1-(2-[[2-(2,6-dioxopiperidin-3-yl)-1,3-dioxoisoindol-5-yl]oxy]ethyl)-N-[(4-[[(2S)-2-[(1-methanesulfonylpyrrol-3-yl)formamido]-2-[(4-phenyl-1,3-thiazol-2-yl)carbamoyl]ethoxy]methyl]phenyl)methyl]piperidine-4-carboxamide; formic acid] |
